According to the supplement of paper PMC10307832:

Columns and labels:
Experiment in all cases: relative viability (nuclei count vs DMSO), 5 days (fraction); higher = more cells survive
RERF-LC-KJ = tested on: RERF-LC-KJ
Outline: (§1)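 One day after seeding in 1536-well plates, lung cancer cell lines were dosed by pin tool. Dosing was either single-drug or a fixed anchor-drug dose plus five library-drug doses (not always all listed) in √10 steps. After 5 days, nuclei were stained in one fix-and-stain step and counted on 4× images, and relative viability is the nuclei count of treated wells over that of vehicle wells, given as the median of duplicate plates.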

PC-3 [JPC-3] = tested on: PC-3 [JPC-3]
Outline: as §1

LK-2 = tested on: LK-2
Outline: as §1

COR-L23 = tested on: COR-L23
Outline: as §1

NCI-H23 = tested on: NCI-H23
Outline: as §1

UMC-11 = tested on: UMC-11
Outline: as §1

A-427 = tested on: A-427
Outline: as §1

HCC-78 = tested on: HCC-78
Outline: as §1

NCI-H647 = tested on: NCI-H647
Outline: as §1

NCI-H520 = tested on: NCI-H520
Outline: as §1

NCI-H2347 = tested on: NCI-H2347
Outline: as §1

NCI-H1651 = tested on: NCI-H1651
Outline: as §1

HARA = tested on: HARA
Outline: as §1

NCI-H838 = tested on: NCI-H838
Outline: as §1

LXF-289 = tested on: LXF-289
Outline: as §1

NCI-H1650 = tested on: NCI-H1650
Outline: as §1

201T = tested on: 201T
Outline: as §1

NCI-H2405 = tested on: NCI-H2405
Outline: as §1

LCLC-97TM1 = tested on: LCLC-97TM1
Outline: as §1

LOU-NH91 = tested on: LOU-NH91
Outline: as §1

LCLC-103H = tested on: LCLC-103H
Outline: as §1

Q: Which relative viability (RERF-LC-KJ; first compound 0.2 µM) does the source give for `Cc1csc(=NC2CCCCC2)n1/N=C/c1ccc(O)c(O)c1O` [MIM1] + C[C@@H](Oc1cc(-c2cnn(C3CCNCC3)c2)cnc1N)c1c(Cl)ccc(F)c1Cl [Crizotinib] (partner 1 µM) here?
A: Its relative viability is 0.787.

Q: What about the relative viability (RERF-LC-KJ; first compound 0.6325 µM) of the same molecule?
A: The relative viability was 0.836.

Q: What about the relative viability (RERF-LC-KJ; first compound 2 µM) of the same molecule?
A: The relative viability was 0.708.

Q: And the relative viability (RERF-LC-KJ; first compound 6.325 µM)?
A: The relative viability was 0.499.

Q: What about the relative viability (RERF-LC-KJ; first compound 20 µM) of the same molecule?
A: Its relative viability is 0.267.

Q: And the relative viability (PC-3 [JPC-3]; first compound 0.2 µM)?
A: The relative viability was 0.989.

Q: What about the relative viability (PC-3 [JPC-3]; first compound 0.6325 µM) of the same molecule?
A: The relative viability was 1.

Q: And the relative viability (PC-3 [JPC-3]; first compound 2 µM)?
A: The relative viability was 1.

Q: What about the relative viability (PC-3 [JPC-3]; first compound 6.325 µM) of the same molecule?
A: The relative viability was 0.768.

Q: What about the relative viability (PC-3 [JPC-3]; first compound 20 µM) of the same molecule?
A: Its relative viability is 0.451.

Q: What about the relative viability (LK-2; first compound 0.2 µM) of the same molecule?
A: The relative viability was 0.234.

Q: And the relative viability (LK-2; first compound 0.6325 µM)?
A: Its relative viability is 0.233.

Q: And the relative viability (LK-2; first compound 6.325 µM)?
A: The relative viability was 0.227.

Q: What about the relative viability (LK-2; first compound 20 µM) of the same molecule?
A: Its relative viability is 0.229.

Q: And the relative viability (COR-L23; first compound 0.2 µM)?
A: Its relative viability is 0.571.

Q: What about the relative viability (COR-L23; first compound 0.6325 µM) of the same molecule?
A: The relative viability was 0.621.

Q: And the relative viability (COR-L23; first compound 2 µM)?
A: The relative viability was 0.657.

Q: What about the relative viability (COR-L23; first compound 6.325 µM) of the same molecule?
A: The relative viability was 0.461.

Q: And the relative viability (COR-L23; first compound 20 µM)?
A: Its relative viability is 0.372.

Q: And the relative viability (NCI-H23; first compound 0.2 µM)?
A: Its relative viability is 0.554.

Q: What about the relative viability (NCI-H23; first compound 2 µM) of the same molecule?
A: The relative viability was 0.334.

Q: What about the relative viability (NCI-H23; first compound 6.325 µM) of the same molecule?
A: Its relative viability is 0.487.

Q: And the relative viability (NCI-H23; first compound 20 µM)?
A: Its relative viability is 0.259.

Q: What about the relative viability (UMC-11; first compound 0.2 µM) of the same molecule?
A: The relative viability was 0.544.

Q: What about the relative viability (UMC-11; first compound 0.6325 µM) of the same molecule?
A: Its relative viability is 0.565.

Q: What about the relative viability (UMC-11; first compound 2 µM) of the same molecule?
A: Its relative viability is 0.649.

Q: What about the relative viability (UMC-11; first compound 6.325 µM) of the same molecule?
A: The relative viability was 0.349.

Q: And the relative viability (UMC-11; first compound 20 µM)?
A: Its relative viability is 0.184.

Q: What about the relative viability (A-427; first compound 0.2 µM) of the same molecule?
A: The relative viability was 0.881.

Q: And the relative viability (A-427; first compound 0.6325 µM)?
A: The relative viability was 0.731.

Q: And the relative viability (A-427; first compound 2 µM)?
A: The relative viability was 0.862.

Q: And the relative viability (A-427; first compound 6.325 µM)?
A: The relative viability was 0.713.

Q: What about the relative viability (A-427; first compound 20 µM) of the same molecule?
A: Its relative viability is 0.214.

Q: And the relative viability (HCC-78; first compound 0.2 µM)?
A: Its relative viability is 0.322.

Q: And the relative viability (HCC-78; first compound 0.6325 µM)?
A: Its relative viability is 0.324.

Q: And the relative viability (HCC-78; first compound 2 µM)?
A: The relative viability was 0.309.

Q: And the relative viability (HCC-78; first compound 6.325 µM)?
A: The relative viability was 0.318.

Q: And the relative viability (HCC-78; first compound 20 µM)?
A: Its relative viability is 0.735.

Q: And the relative viability (NCI-H647; first compound 0.2 µM)?
A: Its relative viability is 1.05.

Q: What about the relative viability (NCI-H647; first compound 0.6325 µM) of the same molecule?
A: The relative viability was 1.17.

Q: What about the relative viability (NCI-H647; first compound 2 µM) of the same molecule?
A: Its relative viability is 1.02.

Q: And the relative viability (NCI-H647; first compound 6.325 µM)?
A: Its relative viability is 0.719.

Q: And the relative viability (NCI-H647; first compound 20 µM)?
A: The relative viability was 0.354.

Q: What about the relative viability (NCI-H520; first compound 0.2 µM) of the same molecule?
A: The relative viability was 0.688.

Q: What about the relative viability (NCI-H520; first compound 0.6325 µM) of the same molecule?
A: Its relative viability is 0.787.

Q: And the relative viability (NCI-H520; first compound 2 µM)?
A: The relative viability was 0.862.

Q: What about the relative viability (NCI-H520; first compound 6.325 µM) of the same molecule?
A: Its relative viability is 0.578.

Q: What about the relative viability (NCI-H520; first compound 20 µM) of the same molecule?
A: Its relative viability is 0.498.

Q: What about the relative viability (NCI-H2347; first compound 0.2 µM) of the same molecule?
A: Its relative viability is 0.584.

Q: What about the relative viability (NCI-H2347; first compound 0.6325 µM) of the same molecule?
A: The relative viability was 0.548.

Q: And the relative viability (NCI-H2347; first compound 2 µM)?
A: Its relative viability is 0.677.

Q: And the relative viability (NCI-H2347; first compound 6.325 µM)?
A: Its relative viability is 0.577.

Q: What about the relative viability (NCI-H2347; first compound 20 µM) of the same molecule?
A: The relative viability was 0.4.

Q: And the relative viability (NCI-H1651; first compound 0.2 µM)?
A: Its relative viability is 0.921.

Q: What about the relative viability (NCI-H1651; first compound 0.6325 µM) of the same molecule?
A: Its relative viability is 0.878.

Q: What about the relative viability (NCI-H1651; first compound 2 µM) of the same molecule?
A: Its relative viability is 0.827.

Q: And the relative viability (NCI-H1651; first compound 6.325 µM)?
A: Its relative viability is 0.832.

Q: What about the relative viability (NCI-H1651; first compound 20 µM) of the same molecule?
A: Its relative viability is 0.584.

Q: What about the relative viability (HARA; first compound 0.2 µM) of the same molecule?
A: The relative viability was 1.06.

Q: And the relative viability (HARA; first compound 0.6325 µM)?
A: Its relative viability is 1.13.

Q: And the relative viability (HARA; first compound 2 µM)?
A: Its relative viability is 1.08.

Q: And the relative viability (HARA; first compound 6.325 µM)?
A: Its relative viability is 0.997.

Q: And the relative viability (HARA; first compound 20 µM)?
A: The relative viability was 0.138.

Q: What about the relative viability (NCI-H838; first compound 0.2 µM) of the same molecule?
A: Its relative viability is 0.818.

Q: And the relative viability (NCI-H838; first compound 0.6325 µM)?
A: Its relative viability is 0.988.

Q: And the relative viability (NCI-H838; first compound 2 µM)?
A: Its relative viability is 0.554.

Q: What about the relative viability (NCI-H838; first compound 6.325 µM) of the same molecule?
A: The relative viability was 0.688.

Q: And the relative viability (NCI-H838; first compound 20 µM)?
A: Its relative viability is 0.699.

Q: What about the relative viability (LXF-289; first compound 0.2 µM) of the same molecule?
A: Its relative viability is 0.806.

Q: And the relative viability (LXF-289; first compound 0.6325 µM)?
A: The relative viability was 0.732.

Q: And the relative viability (LXF-289; first compound 2 µM)?
A: The relative viability was 0.833.

Q: And the relative viability (LXF-289; first compound 6.325 µM)?
A: The relative viability was 0.655.

Q: And the relative viability (LXF-289; first compound 20 µM)?
A: Its relative viability is 0.388.

Q: And the relative viability (NCI-H1650; first compound 0.2 µM)?
A: Its relative viability is 1.04.

Q: What about the relative viability (NCI-H1650; first compound 0.6325 µM) of the same molecule?
A: The relative viability was 0.931.

Q: What about the relative viability (NCI-H1650; first compound 2 µM) of the same molecule?
A: The relative viability was 0.495.

Q: And the relative viability (NCI-H1650; first compound 6.325 µM)?
A: Its relative viability is 0.47.

Q: And the relative viability (NCI-H1650; first compound 20 µM)?
A: The relative viability was 0.156.

Q: And the relative viability (201T; first compound 0.2 µM)?
A: Its relative viability is 1.01.

Q: What about the relative viability (201T; first compound 0.6325 µM) of the same molecule?
A: Its relative viability is 1.04.

Q: And the relative viability (201T; first compound 2 µM)?
A: The relative viability was 1.04.

Q: What about the relative viability (201T; first compound 6.325 µM) of the same molecule?
A: Its relative viability is 0.81.

Q: What about the relative viability (201T; first compound 20 µM) of the same molecule?
A: Its relative viability is 0.823.

Q: And the relative viability (NCI-H2405; first compound 0.2 µM)?
A: Its relative viability is 0.883.

Q: And the relative viability (NCI-H2405; first compound 0.6325 µM)?
A: The relative viability was 0.864.

Q: What about the relative viability (NCI-H2405; first compound 2 µM) of the same molecule?
A: The relative viability was 0.912.

Q: What about the relative viability (NCI-H2405; first compound 6.325 µM) of the same molecule?
A: Its relative viability is 0.701.

Q: And the relative viability (NCI-H2405; first compound 20 µM)?
A: The relative viability was 0.508.

Q: And the relative viability (LCLC-97TM1; first compound 0.2 µM)?
A: The relative viability was 0.327.

Q: And the relative viability (LCLC-97TM1; first compound 0.6325 µM)?
A: The relative viability was 0.38.

Q: What about the relative viability (LCLC-97TM1; first compound 2 µM) of the same molecule?
A: The relative viability was 0.441.

Q: And the relative viability (LCLC-97TM1; first compound 6.325 µM)?
A: The relative viability was 0.214.

Q: And the relative viability (LCLC-97TM1; first compound 20 µM)?
A: The relative viability was 0.12.

Q: What about the relative viability (LOU-NH91; first compound 0.2 µM) of the same molecule?
A: The relative viability was 0.748.

Q: What about the relative viability (LOU-NH91; first compound 0.6325 µM) of the same molecule?
A: Its relative viability is 0.728.

Q: And the relative viability (LOU-NH91; first compound 2 µM)?
A: The relative viability was 0.683.

Q: What about the relative viability (LOU-NH91; first compound 6.325 µM) of the same molecule?
A: Its relative viability is 0.675.

Q: What about the relative viability (LOU-NH91; first compound 20 µM) of the same molecule?
A: The relative viability was 0.392.

Q: And the relative viability (LCLC-103H; first compound 0.2 µM)?
A: Its relative viability is 1.

Q: What about the relative viability (LCLC-103H; first compound 0.6325 µM) of the same molecule?
A: The relative viability was 1.

Q: And the relative viability (LCLC-103H; first compound 2 µM)?
A: The relative viability was 1.1.

Q: And the relative viability (LCLC-103H; first compound 6.325 µM)?
A: Its relative viability is 0.909.

Q: What about the relative viability (LCLC-103H; first compound 20 µM) of the same molecule?
A: Its relative viability is 0.985.
